Our source for the EC50 values is patent publication US20200055839A1 (priority 2017, published 2020).

In one experiment the test system is NL-RLuc virus. Kind of experiment: Inhibition of HIV replication (NL-RLuc virus, luciferase readout in MT-2 cells). In kind it is cell-based. The settings on record: Human immunodeficiency virus 1, MT2, 120 h, MT-2 cells infected with NL-RLuc virus, 5 days of incubation, 10% FBS, at least 2 experiments. An outline of the steps: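 EC50 derived via median effect equation from at least 2 experiments, using luciferase expression as virus-growth readout. Replication-competent NL-RLuc reporter virus (nef partly replaced by Renilla luciferase) infected MT-2 cells with serial compound dilutions; 5-day incubation in RPMI 1640 plus 10% FBS.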
By EC50 is commonly meant the concentration needed to bring the measured effect to its halfway point. High values mean lower potency in that assay, low ones higher potency in that assay. Turning to `Cc1ncc(-c2cnc(O[C@@H](C)c3ccccc3)c(F)c2)c(N2CCC(C)(C)CC2)c1[C@H](OC(C)(C)C)C(=O)O` [Example 400, (2S)-2-(tert-butoxy)-2-[4-(4,4-dimethylpiperidin-1-yl)-5′-fluoro-6-methyl-6′-[(1S)-1-phenylethoxy]-[3,3′-bipyridine]-5-yl]acetic acid], the concentration giving a half-maximal response (EC50) amounted to 6 nM. For `Cc1ccc(F)cc1CCOc1ncc(-c2cnc(C)c([C@H](OC(C)(C)C)C(=O)O)c2N2CCC(C)(C)CC2)cc1F` [Example 401, (2S)-2-(tert-butoxy)-2-[4-(4,4-dimethylpiperidin-1-yl)-5′-fluoro-6′-[2-(5-fluoro-2-methylphenyl)ethoxy]-6-methyl-[3,3′-bipyridine]-5-yl]acetic acid], the 50% effective concentration (EC50) was 2 nM.

For `Cc1ncc(-c2cnc(OCC(C)(C)c3ccccc3)c(F)c2)c(N2CCC(C)(C)CC2)c1[C@H](OC(C)(C)C)C(=O)O` [Example 402, (2S)-2-(tert-butoxy)-2-[4-(4,4-dimethylpiperidin-1-yl)-5′-fluoro-6-methyl-6′-(2-methyl-2-phenylpropoxy)-[3,3′-bipyridine]-5-yl]acetic acid], a half-maximal effect (EC50) was put at 3 nM. For the molecule `Cc1ncc(-c2cnc(OCCc3ccc(F)c(Cl)c3)c(F)c2)c(N2CCC(C)(C)CC2)c1[C@H](OC(C)(C)C)C(=O)O` [Example 403, (2S)-2-(tert-butoxy)-2-{6′-[2-(3-chloro-4-fluorophenyl)ethoxy]-4-(4,4-dimethylpiperidin-1-yl)-5′-fluoro-6-methyl-[3,3′-bipyridine]-5-yl}acetic acid], the half-maximal effective concentration (EC50) is 2 nM. `Cc1ncc(-c2cnc(OCCc3c(F)cc(F)cc3F)c(F)c2)c(N2CCC(C)(C)CC2)c1[C@H](OC(C)(C)C)C(=O)O` [Example 404, (2S)-2-(tert-butoxy)-2-[4-(4,4-dimethylpiperidin-1-yl)-5′-fluoro-6-methyl-6′-[2-(2,4,6-trifluorophenyl)ethoxy]-[3,3′-bipyridine]-5-yl]acetic acid] displayed an EC50 of 3 nM. In turn, `Cc1ccc(CCOc2ncc(-c3cnc(C)c([C@H](OC(C)(C)C)C(=O)O)c3N3CCC(C)(C)CC3)cc2F)cc1` [Example 405, (2S)-2-(tert-butoxy)-2-[4-(4,4-dimethylpiperidin-1-yl)-5′-fluoro-6-methyl-6′-[2-(4-methylphenyl)ethoxy]-[3,3′-bipyridine]-5-yl]acetic acid] gave an EC50 of 4 nM. The EC50 values of the last two molecules are within 1.5-fold of each other. Take `Cc1ncc(-c2cnc(OCCCc3ccccc3)c(F)c2)c(N2CCC(C)(C)CC2)c1[C@H](OC(C)(C)C)C(=O)O` [Example 406, (2S)-2-(tert-butoxy)-2-[4-(4,4-dimethylpiperidin-1-yl)-5′-fluoro-6-methyl-6′-(3-phenylpropoxy)-[3,3′-bipyridine]-5-yl]acetic acid]: it took 4 nM to reach a half-maximal effect (EC50). This lies in the single-digit nanomolar range. `CCCCCOc1ncc(-c2cnc(C)c([C@H](OC(C)(C)C)C(=O)O)c2N2CCC(C)(C)CC2)cc1F` [Example 407, (2S)-2-(tert-butoxy)-2-[4-(4,4-dimethylpiperidin-1-yl)-5′-fluoro-6-methyl-6′-(pentyloxy)-[3,3′-bipyridine]-5-yl]acetic acid]: a half-maximal response (EC50) required 4 nM.

As to `CCCCCOc1ccc(-c2cnc(C)c([C@H](OC(C)(C)C)C(=O)O)c2N2CCC(C)(C)CC2)cn1` [Example 408, (S)-2-(tert-Butoxy)-2-(4-(4,4-dimethylpiperidin-1-yl)-6-methyl-6′-(pentyloxy)-[3, 3′-bipyridin]-5-yl)acetic acid], a half-maximal effect (EC50) was put at 2 nM. This EC50 is about 2-fold lower than that of the molecule before. `COc1cc(-c2cnc(C)c([C@H](OC(C)(C)C)C(=O)O)c2N2CCC(C)(C)CC2)cnc1OCC(C)C` [Example 410, (S)-2-(tert-Butoxy)-2-(4-(4,4-dimethylpiperidin-1-yl)-6′-isobutoxy-5′-methoxy-6-methyl-[3,3′-bipyridin]-5-yl)acetic acid] registered a 50% effective concentration (EC50) of 6 nM. Compared with the last molecule, the EC50 is about 3-fold higher. Still for that read-out and setting: under `Cc1ncc(-c2ccc(C(F)CC(C)C)nc2)c(N2CCC(C)(C)CC2)c1[C@H](OC(C)(C)C)C(=O)O` (stereo partly drawn) [Example 411, (2S)-2-(tert-Butoxy)-2-(4-(4,4-dimethylpiperidin-1-yl)-6′-(1-fluoro-3-methylbutyl)-6-methyl-[3, 3′-bipyridin]-5-yl)acetic acid] stands 20 nM; under `Cc1cccc(Cl)c1CCOc1ccc(-c2cnc(C)c([C@H](OC(C)(C)C)C(=O)O)c2N2CCC(C)(C)CC2)cn1` [Example 412, (S)-2-(tert-Butoxy)-2-(6′-(2-chloro-6-methylphenethoxy)-4-(4,4-dimethylpiperidin-1-yl)-6-methyl-[3, 3′-bipyridin]-5-yl)acetic acid], 4 nM. The molecule `COc1nc(OCC(C)C)ccc1-c1cnc(C)c([C@H](OC(C)(C)C)C(=O)O)c1N1CCC(C)(C)CC1` [Example 413, (S)-2-(tert-Butoxy)-2-(4-(4,4-dimethylpiperidin-1-yl)-6′-isobutoxy-2′-methoxy-6-methyl-[3,3′-bipyridin]-5-yl)acetic acid] came in with an EC50 of 16 nM.

Take `CCCCNc1ncc(-c2cnc(C)c([C@H](OC(C)(C)C)C(=O)O)c2N2CCC(C)(C)CC2)cc1F` [Example 414, (S)-2-(tert-Butoxy)-2-(6′-(butylamino)-4-(4,4-dimethylpiperidin-1-yl)-5′-fluoro-6-methyl-[3,3′-bipyridin]-5-yl)acetic acid]: the EC50 was found to be 3 nM. As for `Cc1ncc(-c2cnc(NCC(C)C)c(F)c2)c(N2CCC(C)(C)CC2)c1[C@H](OC(C)(C)C)C(=O)O` [Example 415, (S)-2-(tert-Butoxy)-2-(4-(4,4-dimethylpiperidin-1-yl)-5′-fluoro-6′-(isobutylamino)-6-methyl-[3, 3′-bipyridin]-5-yl)acetic acid], the half-maximal effective concentration (EC50) was found to be 2 nM. As to `Cc1ncc(-c2cnc(OCC(C)C)c(Cl)c2)c(N2CCC(C)(C)CC2)c1[C@H](OC(C)(C)C)C(=O)O` [Example 417, (S)-2-(tert-Butoxy)-2-(5′-chloro-4-(4,4-dimethylpiperidin-1-yl)-6′-isobutoxy-6-methyl-[3,3′-bipyridin]-5-yl)acetic acid], the midpoint of the response, the EC50, lay at 12 nM. As for `Cc1nc(OCC(C)C)ccc1-c1cnc(C)c([C@H](OC(C)(C)C)C(=O)O)c1N1CCC(C)(C)CC1` [Example 418, (S)-2-(tert-Butoxy)-2-(4-(4,4-dimethylpiperidin-1-yl)-6′-isobutoxy-2′,6-dimethyl-[3, 3′-bipyridin]-5-yl)acetic acid], the concentration giving a half-maximal response (EC50) amounted to 107 nM. Against the preceding molecule, the EC50 is about 8.9-fold higher. `Cc1ncc(-c2cncc(CCC(C)C)c2)c(N2CCC(C)(C)CC2)c1[C@H](OC(C)(C)C)C(=O)O` [Example 419, (S)-2-(tert-Butoxy)-2-(4-(4,4-dimethylpiperidin-1-yl)-5′-isopentyl-6-methyl-[3, 3′-bipyridin]-5-yl)acetic acid] returned a concentration for a half-maximal effect (EC50) of 31 nM.

`Cc1ncc(-c2ccc(CCC(C)C)nc2)c(N2CCC(C)(C)CC2)c1[C@H](OC(C)(C)C)C(=O)O` [Example 420, (S)-2-(tert-Butoxy)-2-(4-(4,4-dimethylpiperidin-1-yl)-6′-isopentyl-6-methyl-[3, 3′-bipyridin]-5-yl)acetic acid] showed an EC50 of 13 nM. This EC50 lies about 2.4-fold lower than the previous one. In the case of `Cc1ncc(-c2ccc(/C=C/C(C)C)nc2)c(N2CCC(C)(C)CC2)c1[C@H](OC(C)(C)C)C(=O)O` [Example 421, (S,E)-2-(tert-Butoxy)-2-(4-(4,4-dimethylpiperidin-1-yl)-6-methyl-6′-(3-methylbut-1-en-1-yl)-[3, 3′-bipyridin]-5-yl)acetic acid], the response was half-maximal at 8 nM (EC50).

On to `Cc1ncc(-c2ccc(/C=C\C(C)C)nc2)c(N2CCC(C)(C)CC2)c1[C@H](OC(C)(C)C)C(=O)O` [Example 422, (S,Z)-2-(tert-Butoxy)-2-(4-(4,4-dimethylpiperidin-1-yl)-6-methyl-6′-(3-methylbut-1-en-1-yl)-[3, 3′-bipyridin]-5-yl)acetic acid], for which the response was half-maximal at 10 nM (EC50).

`Cc1cccc(Cl)c1COc1ccc(-c2cnc(C)c([C@H](OC(C)(C)C)C(=O)O)c2N2CCC(C)(C)CC2)cn1` [Example 423, (S)-2-(tert-Butoxy)-2-(6′-((2-chloro-6-methylbenzyl)oxy)-4-(4,4-dimethylpiperidin-1-yl)-6-methyl-[3, 3′-bipyridin]-5-yl)acetic acid] displayed an EC50 of 8 nM. For the molecule `Cc1cccc(Cl)c1C(C)Oc1ccc(-c2cnc(C)c([C@H](OC(C)(C)C)C(=O)O)c2N2CCC(C)(C)CC2)cn1` (stereo partly drawn) [Example 424, (2S)-2-(tert-Butoxy)-2-(6′-(1-(2-chloro-6-methylphenyl)ethoxy)-4-(4,4-dimethylpiperidin-1-yl)-6-methyl-[3, 3′-bipyridin]-5-yl)acetic acid], the midpoint of the response, the EC50, lay at 16 nM. On the same count and under the same terms, under `Cc1nc(OCC(C)C)c(Cl)cc1-c1cnc(C)c([C@H](OC(C)(C)C)C(=O)O)c1N1CCC(C)(C)CC1` [Example 425, (S)-2-(tert-Butoxy)-2-(5′-chloro-4-(4,4-dimethylpiperidin-1-yl)-6′-isobutoxy-2′,6-dimethyl-[3, 3′-bipyridin]-5-yl)acetic acid] stands 126 nM; under `CCCCOc1ccc(-c2cnc(C)c([C@H](OC(C)(C)C)C(=O)O)c2N2CCC(C)(C)CC2)cn1` [Example 426, (S)-2-tert-Butoxy-2-(6′-butoxy-4-(4,4-dimethylpiperidin-1-yl)-6-methyl-3, 3′-bipyridin-5-yl)acetic acid], 0.3 nM; under `Cc1ncc(-c2ccc(OCCC(C)C)nc2)c(N2CCC(C)(C)CC2)c1[C@H](OC(C)(C)C)C(=O)O` [Example 427, (S)-2-tert-Butoxy-2-(4-(4,4-dimethylpiperidin-1-yl)-6′-(isopentyloxy)-6-methyl-3, 3′-bipyridin-5-yl)acetic acid], 2 nM.

The same experiment, now with this note: MT-2 cells infected with NL-RLuc virus, 5 days of incubation, 10% FBS, at least 2 experiments.
`Cc1ncc(-c2cnc(NCCc3ccc(F)cc3)c(F)c2)c(N2CCC(C)(C)CC2)c1[C@H](OC(C)(C)C)C(=O)O` [Example 416, (S)-2-(tert-Butoxy)-2-(4-(4,4-dimethylpiperidin-1-yl)-5′-fluoro-6′-((4-fluorophenethyl)amino)-6-methyl-[3, 3′-bipyridin]-5-yl)acetic acid] came in with an EC50 of 0.6 nM. This lies in the sub-nanomolar range.
